One block for each compound: values may come before it.
Columns and labels:
[1] = system: HeLa, ACHN and NCI-H69 cell lines; experiment: FMCA cytotoxicity, solid tumor cell lines; type: cell-based, human; conditions: 72 h
CLK kinases = experiment: 320-kinase panel screen, radiometric protein kinase assay, CLK kinases; type: biochemical; conditions: 1 μM, 60 min incubation
primary AML cells [2] = experiment: Mouse hollow-fiber model, primary AML cells; type: in vivo; conditions: NMRI male mice, 15 mg/kg s.c. twice daily, 6 days
MV4-11 cells [3] = experiment: Combination studies with cytarabine or daunorubicin
ERK 1, 2 = experiment: ERK radiometric protein kinase assay; type: biochemical; conditions: 1 μM, 60 min
MV4-11 cells [4] = experiment: FMCA cytotoxicity, MV4-11 cell line; type: cell-based, human
[5] = Pharmacokinetic studies in C57 black mice; type: in vivo, mouse
RPS6K = experiment: 320-kinase panel screen, radiometric protein kinase assay, RPS6K; type: biochemical; conditions: 1 μM
MV4-11 cells [6] = experiment: Mouse hollow-fiber model, MV4-11; type: in vivo; conditions: NMRI male mice, 15 mg/kg s.c. twice daily, 6 days
CDC-like kinase 1 (CLK1) = CDC-like kinase 1 (CLK1) (Homo sapiens, UniProt P49759); experiment: Full dose-response kinase assay; type: biochemical
VEGFR2 = VEGFR2 (Homo sapiens, UniProt P35968); experiment: Full dose-response kinase assay; type: biochemical
Plasma protein binding = type: in vitro ADME
MV4-11 cells [7] = experiment: Apoptosis assay; type: cell-based, human; conditions: 10 μM, up to 48 h
AKT 1, 2, 3 = experiment: AKT radiometric protein kinase assay; type: biochemical; conditions: 1 μM, 60 min
RPS6KA = experiment: Full dose-response kinase assay; type: biochemical
MOLM-13 cells = experiment: Alamar Blue cytotoxicity, MOLM-13 cells; type: cell-based; conditions: Homo sapiens, MOLM-13, read-out: cytotoxic activity IC50, MOLM-13
FGFR2 = FGFR2 (Homo sapiens, UniProt P21802); experiment: biochemical
primary AML cells [8] = experiment: FMCA cytotoxicity, primary AML patient cells; type: cell-based, human

VEGFR2, sequence (P35968 20-1356): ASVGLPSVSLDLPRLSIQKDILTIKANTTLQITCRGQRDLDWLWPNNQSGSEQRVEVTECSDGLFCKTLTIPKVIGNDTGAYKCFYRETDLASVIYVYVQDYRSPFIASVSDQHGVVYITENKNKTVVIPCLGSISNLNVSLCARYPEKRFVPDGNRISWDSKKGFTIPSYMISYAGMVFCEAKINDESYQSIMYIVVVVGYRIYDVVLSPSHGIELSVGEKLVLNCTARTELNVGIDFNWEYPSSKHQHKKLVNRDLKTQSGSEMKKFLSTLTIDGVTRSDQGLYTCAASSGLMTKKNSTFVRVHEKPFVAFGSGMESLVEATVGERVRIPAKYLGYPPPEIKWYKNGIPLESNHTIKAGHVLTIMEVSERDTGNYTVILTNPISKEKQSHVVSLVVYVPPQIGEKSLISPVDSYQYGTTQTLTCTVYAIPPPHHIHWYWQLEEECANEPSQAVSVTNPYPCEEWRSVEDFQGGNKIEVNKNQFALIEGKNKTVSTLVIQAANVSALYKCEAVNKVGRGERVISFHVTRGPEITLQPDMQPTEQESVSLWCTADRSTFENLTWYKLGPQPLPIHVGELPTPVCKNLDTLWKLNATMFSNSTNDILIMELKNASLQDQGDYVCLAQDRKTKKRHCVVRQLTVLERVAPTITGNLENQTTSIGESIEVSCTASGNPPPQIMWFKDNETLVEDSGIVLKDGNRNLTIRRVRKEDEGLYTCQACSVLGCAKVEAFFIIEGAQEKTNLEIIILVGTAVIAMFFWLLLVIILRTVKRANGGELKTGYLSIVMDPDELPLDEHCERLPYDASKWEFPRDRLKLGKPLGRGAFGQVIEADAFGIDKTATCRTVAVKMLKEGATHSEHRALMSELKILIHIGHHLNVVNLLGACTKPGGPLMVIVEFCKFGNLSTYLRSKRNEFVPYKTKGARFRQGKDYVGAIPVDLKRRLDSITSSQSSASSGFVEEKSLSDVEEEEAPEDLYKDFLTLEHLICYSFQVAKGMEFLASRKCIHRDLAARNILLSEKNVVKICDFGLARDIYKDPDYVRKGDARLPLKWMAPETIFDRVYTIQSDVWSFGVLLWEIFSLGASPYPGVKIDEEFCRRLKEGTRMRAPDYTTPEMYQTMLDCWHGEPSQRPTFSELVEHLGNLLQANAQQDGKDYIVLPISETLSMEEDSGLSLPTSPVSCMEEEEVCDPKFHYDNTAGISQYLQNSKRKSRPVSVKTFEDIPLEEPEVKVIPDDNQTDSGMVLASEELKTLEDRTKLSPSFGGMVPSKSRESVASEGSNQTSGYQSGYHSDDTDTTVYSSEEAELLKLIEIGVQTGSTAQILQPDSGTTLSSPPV
FGFR2, sequence (P21802 22-821): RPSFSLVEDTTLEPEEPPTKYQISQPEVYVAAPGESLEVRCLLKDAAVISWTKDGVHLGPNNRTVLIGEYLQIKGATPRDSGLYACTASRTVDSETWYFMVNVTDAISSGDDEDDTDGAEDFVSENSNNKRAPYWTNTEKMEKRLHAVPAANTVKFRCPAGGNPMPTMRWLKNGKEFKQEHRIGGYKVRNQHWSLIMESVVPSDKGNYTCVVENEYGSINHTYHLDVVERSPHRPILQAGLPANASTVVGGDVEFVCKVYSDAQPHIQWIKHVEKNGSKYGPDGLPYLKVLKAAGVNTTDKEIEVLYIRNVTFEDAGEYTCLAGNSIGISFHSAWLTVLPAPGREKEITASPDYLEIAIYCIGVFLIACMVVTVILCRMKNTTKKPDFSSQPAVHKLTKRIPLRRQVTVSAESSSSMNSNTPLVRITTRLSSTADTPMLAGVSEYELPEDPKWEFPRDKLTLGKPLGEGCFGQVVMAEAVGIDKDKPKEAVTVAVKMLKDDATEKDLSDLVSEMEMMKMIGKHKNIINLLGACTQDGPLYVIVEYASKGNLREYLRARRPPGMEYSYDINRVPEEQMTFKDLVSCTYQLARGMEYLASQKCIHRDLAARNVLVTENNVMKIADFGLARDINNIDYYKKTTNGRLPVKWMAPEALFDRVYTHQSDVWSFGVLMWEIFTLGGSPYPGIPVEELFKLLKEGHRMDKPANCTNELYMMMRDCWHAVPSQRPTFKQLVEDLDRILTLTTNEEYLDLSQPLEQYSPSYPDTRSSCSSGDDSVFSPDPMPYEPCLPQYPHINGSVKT
CDC-like kinase 1 (CLK1), sequence (P49759 whole entry): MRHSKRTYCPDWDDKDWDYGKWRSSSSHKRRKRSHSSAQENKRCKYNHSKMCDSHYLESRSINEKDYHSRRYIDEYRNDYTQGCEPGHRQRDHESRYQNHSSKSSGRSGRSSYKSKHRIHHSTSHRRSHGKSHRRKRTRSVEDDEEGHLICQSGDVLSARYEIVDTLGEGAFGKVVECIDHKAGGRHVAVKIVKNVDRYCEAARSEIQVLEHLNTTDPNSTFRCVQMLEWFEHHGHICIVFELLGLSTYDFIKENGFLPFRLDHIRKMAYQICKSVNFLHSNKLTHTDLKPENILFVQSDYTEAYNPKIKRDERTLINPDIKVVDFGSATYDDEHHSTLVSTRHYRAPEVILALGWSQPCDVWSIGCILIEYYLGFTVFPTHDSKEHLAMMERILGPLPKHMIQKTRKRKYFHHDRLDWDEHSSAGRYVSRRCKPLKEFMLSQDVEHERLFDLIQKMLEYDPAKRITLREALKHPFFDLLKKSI

remaining enzyme activity, CLK kinases (CLK kinases): Less than 20%
inhibition of ERK 1, 2 (ERK 1, 2): No direct inhibition
plasma target concentration ([5]; IC90 divided by fraction unbound): 1 to 3 µM
predicted exposure time above plasma target concentration ([5]; hollow-fiber experiment, twice daily, target 1–3 μM): 1 h
remaining enzyme activity, RPS6K (RPS6K; 60 min incubation): Less than 20%
IC50 (CDC-like kinase 1 (CLK1)): 0.14 µM
IC50 (VEGFR2): 0.52 µM
fraction unbound (Plasma protein binding): 0.035
inhibition of AKT 1, 2, 3 (AKT 1, 2, 3): No direct inhibition
IC50 RPS6KA (RPS6KA): 220 nℳ nM
IC50 (FGFR2): 1.2 µM
Structure (SMILES): Nc1ncc(-c2ccncc2)nc1Nc1ccc2[nH]ccc2c1 [AKN-028, N-3-(1H-indol-5-yl)-5-pyridin-4-yl-pyrazine-2,3-diamine]
cytotoxic effect in solid tumor cell lines HeLa, ACHN and NCI-H69 [1]: Almost no effect
net growth in hollow fibers, primary AML sample UPN25 (primary AML cells [2]): no significant inhibition
net growth in hollow fibers, primary AML sample UPN26 (primary AML cells [2]): inhibited net growth
drug interaction (mean combination index) with cytarabine (MV4-11 cells [3]; cytarabine simultaneously or 24 h before AKN-028, cytarabine:AKN-028 2.5:1): synergy
drug interaction (mean combination index) with daunorubicin (MV4-11 cells [3]; daunorubicin simultaneously or 24 h before AKN-028, daunorubicin:AKN-028 1:20): synergy
drug interaction (mean combination index) with cytarabine (MV4-11 cells [3]; pre-treated with AKN-028 24 h, followed by cytarabine): antagonism
drug interaction (mean combination index) with daunorubicin (MV4-11 cells [3]; pre-treated with AKN-028 24 h, followed by daunorubicin): antagonism
IC50 (MV4-11 cells [4]; Homo sapiens, MV4-11, 72 h, read-out: cytotoxic activity IC50, MV4-11): < 0.05 µM
net growth in hollow fibers, MV4-11 (MV4-11 cells [6]): reduced the tumor mass
apoptosis / caspase 3 activation in MV4-11 (MV4-11 cells [7]): induced apoptosis by activation of caspase 3
IC50 (MOLM-13 cells): < 0.05 µM
IC50 (primary AML cells [8]; Homo sapiens, read-out: mean IC50, primary AML samples, n=15 samples): 1 µM

inhibition of RPS6K in kinase-panel screen (RPS6K): did not inhibit
Structure (SMILES): CC(C)(C)c1cc(NC(=O)Nc2ccc(-c3cn4c(n3)sc3cc(OCCN5CCOCC5)ccc34)cc2)no1 [AC220, reference compound]
cytotoxic efficacy in MV4-11 (MV4-11 cells [4]; FMCA dose-response): full efficacy
cytotoxic response in primary AML samples (primary AML cells [8]; FMCA, 11 additional AML patient samples (UPN 14-24)): varied considerably
